In ChEMBL document CHEMBL1138819, “Synthesis and biological evaluation of pteridine and pyrazolopyrimidine based adenosine kinase inhibitors” (Bioorg Med Chem Lett, 2004) one finds IC50 data, which are given here for 14 molecules.

As a reminder, the IC50 is the concentration that inhibits the measured activity by half. Low values mean greater potency, high ones weaker potency.

The assay has as its target Adenosine kinase (Homo sapiens, UniProt P55263). As to the kind of experiment: In vitro inhibitory concentration against Adenosine kinase in cycstolic assay.

Chain of Adenosine kinase (P55263 whole entry): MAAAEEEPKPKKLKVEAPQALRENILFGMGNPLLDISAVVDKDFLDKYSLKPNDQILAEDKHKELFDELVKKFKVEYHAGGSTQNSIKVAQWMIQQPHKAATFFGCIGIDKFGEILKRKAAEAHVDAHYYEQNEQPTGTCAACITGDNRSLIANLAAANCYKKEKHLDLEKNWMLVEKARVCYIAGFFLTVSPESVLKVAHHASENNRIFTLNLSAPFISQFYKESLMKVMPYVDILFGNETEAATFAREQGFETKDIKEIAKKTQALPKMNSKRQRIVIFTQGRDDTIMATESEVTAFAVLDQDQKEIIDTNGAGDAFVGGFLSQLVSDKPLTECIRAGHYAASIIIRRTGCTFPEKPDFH

On to `c1ccc(CCNc2ncnc3nc(-c4ccc(N5CCOCC5)nc4)cnc23)cc1`, for which the IC50 is 0.12 µM. Turning to `Cn1nc(-c2cccc(Br)c2)c2c(C#Cc3ccc(N4CCOCC4)nc3)ncnc21`, the IC50 was found to be 0.082 µM. The same measure for `CN(C)c1ccc(C#Cc2ncnc3c2c(-c2cccc(Br)c2)nn3C)cn1`: 0.0075 µM; for `CN(C)c1ccc(C#Cc2[nH]cnc3nnc(-c4cccc(Br)c4)c2-3)cn1`: 0.075 µM. As for `CN(C)c1ccc(C#Cc2ncnc3n[nH]c(-c4ccccc4)c23)cn1`, the IC50 turned out to be 0.1 µM. The same measure for `Nc1ncnc2nc(-c3ccc(N4CCOCC4)nc3)cnc12`: 0.46 µM. The same measure for `Nc1ncnc(C#Cc2ccc(N3CCOCC3)nc2)c1Cc1cccc(Br)c1`: 0.022 µM; for `CN(Cc1ccccc1)c1c(N)ncnc1C#Cc1ccc(N2CCOCC2)nc1`: 0.03 µM; for `c1ccc2c(CCNc3ncnc4nc(-c5ccc(N6CCOCC6)nc5)cnc34)c[nH]c2c1`: 0.3 µM. The same measure for `c1ccc(CCCCNc2ncnc3nc(-c4ccc(N5CCOCC5)nc4)cnc23)cc1`: 0.082 µM; for `Brc1cccc(-c2[nH]nc3ncnc(C#Cc4ccc(N5CCOCC5)nc4)c23)c1`: 0.022 µM. As for `Brc1cccc(-c2nn(Cc3ccccc3)c3ncnc(C#Cc4ccc(N5CCOCC5)nc4)c23)c1`, the IC50 was more than 1 µM.

Molecule `c1ccc(CCCNc2ncnc3nc(-c4ccc(N5CCOCC5)nc4)cnc23)cc1` showed an IC50 of 0.072 µM.

`Nc1ncnc2cc(-c3ccc(N4CCOCC4)nc3)n(Cc3ccccc3)c12` showed an IC50 of more than 1 µM.
